Measurements taken from patent US5981497A, “Utilization of sophorolipids as therapeutically active substances or cosmetic products, in particular for the treatment of the skin” (Institut Francais du Petrole, priority 1995, dated 1999).

Key:
[1] = test system: keratinocyte culture (detachment of corneocytes); test: Desquamating test, detachment of corneocytes in vitro; format: cell-based
From the text: Variation coefficient CV is obtained as follows: [formula]
Actually, the therapeutic applications incidentally involve cosmetic applications.

[2] = in vitro; conditions: keratinocyte culture
Experimental: A keratinocyte culture that was placed under conditions that promote the differentiation of cells was selected as a cellular model for the study. The actions of sophorolipids in acid form A, sophorolipids in lactone form B, and lactic acid on the detachment of corneocytes of the selected cellular model were tested in vitro in parallel. In each experiment, the mean difference T60-T0 (corneocytes/ml), as well as the proportion of detached corneocytes, expressed in percentage relative to the negative test (%/TN), were determined.
Cellular viability, measured with the Neutral Red test, is expressed relative to the negative test (%).

[3] = test system: macrophages (Interleukin-1 release); test: IL-1 released by macrophages (Elisa sandwich test on culture supernatant); format: cell-based; conditions: 25 μg/ml
From the text: It is known, however, that several factors such as cytokines and growth factors play important roles in the process of wound healing. These factors include the epidermal growth factor (EGF), the fibroblastic growth factor (FGF), the platelet-derived growth factor (PDGF), and the beta transforming growth factor (beta-TGF). In addition to these factors, cytokines such as interleukin-l (IL-1), the tumor necrosis factor (TNF), and interleukin-6 (IL-6) also play important roles in the process of wound healing. These factors act by different methods, in combination with other materials, to induce proliferation of dermal and epidermal elements such as fibroblasts. […] Actually, IL-1 affects the differentiation, growth, and activity of many cellular types in the organism. Within the immune system, IL-1 acts as a second signal that is necessary to activate the IL-2 circuit by the activated T lymphocytes. It also potentiates the action of other cytokines. It contributes to the differentiation of B lymphocytes and to their production of immunoglobulins. It modifies vascular permeability by the release of mediators by the endothelial cells and induces the appearance at their surface of a factor that has a procoagulating activity. Owing to its proliferative effect on the fibroblasts, it intervenes in the repair phase.
To show the effect of activating macrophages by sophorolipids, an Elisa sandwich test was carried out on the supernatant of a culture medium that contained macrophages. […] A negative test was also used.

Molecule | T60-T0 mean difference ([1]; 10^-3M, p less than 0.001) | activity at 1000 µM ([1]; Keratinocyte, 10^-3M, read-out: %/TN, proportion of detached corneocytes relative to the negative test) | EC (2-fold corneocyte release) ([1]; Keratinocyte, read-out: T200 (concentration which causes a release of corneocytes twice that observed with the negative test)) | viability at 1000 µM [2] | Concentrations IL-1 released by macrophages [3]
CC(O)C(=O)O (centres unmarked) [Lactic acid, lactic acid, reference compound] | 2500 corneocytes/ml | 214% | ~1000 µM | 99.5% | –
Lipopolysaccharides [reference compound] | – | – | – | – | 421.61 pg/mL
